Experiments:
[1] = target: MAP2K1 (MEK1) (Homo sapiens (Human), UniProt Q02750); assay: SelectScreen Kinase Profiling: MAP2K1 (MEK1); type: biochemical; settings: tested at 300-350 nM
Description: (§1) Table 4 below highlights the selectivity of a representative compound of the invention, Example 5, against a panel of 50 kinases (assessed using the Invitrogen SelectScreen® Kinase Profiling Service).

[2] = target: ERBB2 (HER2) (Homo sapiens (Human), UniProt P04626); assay: SelectScreen Kinase Profiling: ERBB2 (HER2); type: biochemical; settings: tested at 300-350 nM
Description: as §1

[3] = target: PLK1 (Homo sapiens (Human), UniProt P53350); assay: SelectScreen Kinase Profiling: PLK1; type: biochemical; settings: tested at 300-350 nM
Chain of PLK1 (P53350 whole entry): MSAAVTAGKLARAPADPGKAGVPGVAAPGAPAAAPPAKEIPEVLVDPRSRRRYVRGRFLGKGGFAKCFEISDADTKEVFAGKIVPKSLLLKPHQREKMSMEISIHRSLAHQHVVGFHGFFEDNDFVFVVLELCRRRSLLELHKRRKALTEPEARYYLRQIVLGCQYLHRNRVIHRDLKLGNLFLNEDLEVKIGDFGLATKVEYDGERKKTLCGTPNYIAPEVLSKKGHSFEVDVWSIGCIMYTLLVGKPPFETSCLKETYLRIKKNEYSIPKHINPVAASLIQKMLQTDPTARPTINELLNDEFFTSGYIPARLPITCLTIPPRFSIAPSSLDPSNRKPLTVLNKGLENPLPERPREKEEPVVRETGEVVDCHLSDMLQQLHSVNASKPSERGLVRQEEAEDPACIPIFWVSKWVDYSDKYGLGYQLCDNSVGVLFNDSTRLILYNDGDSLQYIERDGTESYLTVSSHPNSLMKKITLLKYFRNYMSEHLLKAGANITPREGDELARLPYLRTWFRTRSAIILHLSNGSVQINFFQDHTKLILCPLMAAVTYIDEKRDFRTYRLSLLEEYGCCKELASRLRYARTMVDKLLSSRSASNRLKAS
Description: as §1

[4] = target: MET (cMet) (Homo sapiens (Human), UniProt P08581); assay: SelectScreen Kinase Profiling: MET (cMet); type: biochemical; settings: tested at 300-350 nM
Description: as §1

[5] = target: ROCK1 (Homo sapiens (Human), UniProt Q13464); assay: SelectScreen Kinase Profiling: ROCK1; type: biochemical; settings: tested at 300-350 nM
Description: as §1

[6] = tested on: A498 cells; assay: Cell viability (CellTiter-Glo), A498; type: cell-based; settings: Homo sapiens, A498, 144 h; cell viability after 6 days
Experimental: (§2) All cell lines (HT29, A427, A498, SKLU-1) were obtained from the American Type Culture Collection (ATCC), maintained in the recommended media supplemented with 10% (v/v) FBS, 1% (v/v) Penicillin/streptomycin and kept at 37° C. in a humidified atmosphere with 5% CO2. Cells were seeded in 96 wp format typically at a seeding density of 3500-5000 cells/well and treated after 24 hours with increasing concentration of compound from 0 to 100 μM in ½ log unit increments. Cell viability was assessed after 72 hours (HT29, A427) or after 6 days (SKLU-1, A498) by CellTiter-Glo® as recommended by the manufacturer's instructions (Promega). Analysis and EC50 values were derived using GraphPadPrism.

[7] = tested on: SK-LU-1 cells; assay: Cell viability (CellTiter-Glo), SK-LU-1; type: cell-based; settings: Homo sapiens, SK-LU-1, 144 h; cell viability after 6 days
Experimental: as §2

[8] = target: AURKA (Aurora A) (Homo sapiens (Human), UniProt O14965); assay: SelectScreen Kinase Profiling: AURKA (Aurora A); type: biochemical; settings: tested at 300-350 nM
Description: as §1

[9] = target: EPHA2 (Homo sapiens (Human), UniProt P29317); assay: SelectScreen Kinase Profiling: EPHA2; type: biochemical; settings: tested at 300-350 nM
Description: as §1

[10] = target: AKT1 (PKB alpha) (Homo sapiens (Human), UniProt P31749); assay: SelectScreen Kinase Profiling: AKT1 (PKB alpha); type: biochemical; settings: tested at 300-350 nM
Description: as §1

[11] = target: ACVR1B (ALK4) (Homo sapiens (Human), UniProt P36896); assay: SelectScreen Kinase Profiling: ACVR1B (ALK4); type: biochemical; settings: tested at 300-350 nM
Description: as §1

[12] = target: PRKCB1 (PKC beta I) (Homo sapiens (Human), UniProt P05771); assay: SelectScreen Kinase Profiling: PRKCB1 (PKC beta I); type: biochemical; settings: tested at 300-350 nM
Chain of PRKCB1 (PKC beta I) (P05771 whole entry): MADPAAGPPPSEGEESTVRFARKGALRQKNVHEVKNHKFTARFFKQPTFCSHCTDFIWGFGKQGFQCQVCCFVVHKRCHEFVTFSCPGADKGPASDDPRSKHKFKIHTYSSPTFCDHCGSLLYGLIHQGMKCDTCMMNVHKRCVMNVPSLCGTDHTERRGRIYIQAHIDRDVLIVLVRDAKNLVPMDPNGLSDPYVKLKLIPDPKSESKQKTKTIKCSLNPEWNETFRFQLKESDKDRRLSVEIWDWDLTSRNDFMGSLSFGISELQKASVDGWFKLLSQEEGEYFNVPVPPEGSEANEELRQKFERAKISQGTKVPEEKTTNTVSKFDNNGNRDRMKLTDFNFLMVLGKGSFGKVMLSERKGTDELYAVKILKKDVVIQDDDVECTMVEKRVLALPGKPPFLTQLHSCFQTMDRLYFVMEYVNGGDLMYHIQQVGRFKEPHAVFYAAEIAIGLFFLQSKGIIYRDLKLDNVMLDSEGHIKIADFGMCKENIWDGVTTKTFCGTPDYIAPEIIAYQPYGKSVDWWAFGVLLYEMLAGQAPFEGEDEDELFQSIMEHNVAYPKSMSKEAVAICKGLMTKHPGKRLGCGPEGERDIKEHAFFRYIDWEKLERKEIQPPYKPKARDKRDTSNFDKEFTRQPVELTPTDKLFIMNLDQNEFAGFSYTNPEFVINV
Description: as §1

[13] = target: PIM1 (Homo sapiens (Human), UniProt P11309); assay: SelectScreen Kinase Profiling: PIM1; type: biochemical; settings: tested at 300-350 nM
Description: as §1

[14] = target: MAPK1 (ERK2) (Homo sapiens (Human), UniProt P28482); assay: SelectScreen Kinase Profiling: MAPK1 (ERK2); type: biochemical; settings: tested at 300-350 nM
Chain of MAPK1 (ERK2) (P28482 whole entry): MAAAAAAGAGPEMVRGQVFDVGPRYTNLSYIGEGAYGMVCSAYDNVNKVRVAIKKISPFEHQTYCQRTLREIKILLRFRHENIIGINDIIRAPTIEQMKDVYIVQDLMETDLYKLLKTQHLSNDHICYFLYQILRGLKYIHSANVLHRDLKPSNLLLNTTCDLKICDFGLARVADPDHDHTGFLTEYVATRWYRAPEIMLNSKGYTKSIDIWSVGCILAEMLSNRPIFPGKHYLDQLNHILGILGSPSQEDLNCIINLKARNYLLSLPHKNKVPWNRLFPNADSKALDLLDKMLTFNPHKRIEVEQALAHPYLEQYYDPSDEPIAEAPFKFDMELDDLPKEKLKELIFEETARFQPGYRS
Description: as §1

[15] = target: GSK3B (GSK3 beta) (Homo sapiens (Human), UniProt P49841); assay: SelectScreen Kinase Profiling: GSK3B (GSK3 beta); type: biochemical; settings: tested at 300-350 nM
Description: as §1

[16] = target: ABL1 (Homo sapiens (Human), UniProt P00519); assay: SelectScreen Kinase Profiling: ABL1; type: biochemical; settings: tested at 300-350 nM
Description: as §1

[17] = target: CSNK1G2 (CK1 gamma 2) (Homo sapiens (Human), UniProt P78368); assay: SelectScreen Kinase Profiling: CSNK1G2 (CK1 gamma 2); type: biochemical; settings: tested at 300-350 nM
Chain of CSNK1G2 (CK1 gamma 2) (P78368 whole entry): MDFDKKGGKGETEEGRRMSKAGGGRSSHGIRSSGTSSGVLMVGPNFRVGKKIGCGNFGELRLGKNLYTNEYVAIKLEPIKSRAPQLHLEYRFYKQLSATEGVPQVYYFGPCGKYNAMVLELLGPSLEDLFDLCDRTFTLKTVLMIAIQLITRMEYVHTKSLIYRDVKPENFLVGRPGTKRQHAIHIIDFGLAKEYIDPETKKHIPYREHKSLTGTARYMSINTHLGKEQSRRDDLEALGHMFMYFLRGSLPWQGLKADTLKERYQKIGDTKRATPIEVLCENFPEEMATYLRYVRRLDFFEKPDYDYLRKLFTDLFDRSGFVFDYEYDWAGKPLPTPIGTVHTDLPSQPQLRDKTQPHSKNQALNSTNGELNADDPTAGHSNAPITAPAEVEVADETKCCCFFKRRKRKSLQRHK
Description: as §1

[18] = target: NEK1 (Homo sapiens (Human), UniProt Q96PY6); assay: SelectScreen Kinase Profiling: NEK1; type: biochemical; settings: tested at 300-350 nM
Description: as §1

[19] = target: LCK (Homo sapiens (Human), UniProt P06239); assay: SelectScreen Kinase Profiling: LCK; type: biochemical; settings: tested at 300-350 nM
[20] = target: DYRK3 (Homo sapiens (Human), UniProt O43781); assay: SelectScreen Kinase Profiling: DYRK3; type: biochemical; settings: tested at 300-350 nM
Description: as §1

[21] = target: PHKG2 (Homo sapiens (Human), UniProt P15735); assay: SelectScreen Kinase Profiling: PHKG2; type: biochemical; settings: tested at 300-350 nM
Chain of PHKG2 (P15735 whole entry): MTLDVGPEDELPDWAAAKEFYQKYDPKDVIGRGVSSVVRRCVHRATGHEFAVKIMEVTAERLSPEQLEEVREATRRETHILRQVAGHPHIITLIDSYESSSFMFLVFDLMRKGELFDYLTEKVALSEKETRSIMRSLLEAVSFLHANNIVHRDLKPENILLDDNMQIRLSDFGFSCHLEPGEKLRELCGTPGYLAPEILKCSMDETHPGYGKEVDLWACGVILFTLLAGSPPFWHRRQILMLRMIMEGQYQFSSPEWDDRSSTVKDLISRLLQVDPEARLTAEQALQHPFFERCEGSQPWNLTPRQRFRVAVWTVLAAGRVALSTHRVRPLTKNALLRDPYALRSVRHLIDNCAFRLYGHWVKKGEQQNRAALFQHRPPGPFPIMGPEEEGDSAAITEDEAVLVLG
Description: as §1

[22] = target: RET (Homo sapiens (Human), UniProt P07949); assay: SelectScreen Kinase Profiling: RET; type: biochemical; settings: tested at 300-350 nM
[23] = target: CSNK2A1 (CK2 alpha 1) (Homo sapiens (Human), UniProt P68400); assay: SelectScreen Kinase Profiling: CSNK2A1 (CK2 alpha 1); type: biochemical; settings: tested at 300-350 nM
Chain of CSNK2A1 (CK2 alpha 1) (P68400 whole entry): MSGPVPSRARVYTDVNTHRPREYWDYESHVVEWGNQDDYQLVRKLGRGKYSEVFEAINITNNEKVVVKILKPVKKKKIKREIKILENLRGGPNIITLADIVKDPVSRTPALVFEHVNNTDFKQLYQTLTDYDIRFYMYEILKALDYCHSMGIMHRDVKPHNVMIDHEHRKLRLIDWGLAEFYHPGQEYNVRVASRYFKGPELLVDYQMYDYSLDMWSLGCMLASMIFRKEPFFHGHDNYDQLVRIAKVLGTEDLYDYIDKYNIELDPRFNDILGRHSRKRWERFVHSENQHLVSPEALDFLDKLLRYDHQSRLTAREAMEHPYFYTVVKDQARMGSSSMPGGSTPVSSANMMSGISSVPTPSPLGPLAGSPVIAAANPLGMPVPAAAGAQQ
Description: as §1

[24] = target: FLT3 (Homo sapiens (Human), UniProt P36888); assay: SelectScreen Kinase Profiling: FLT3; type: biochemical; settings: tested at 300-350 nM
Description: as §1

[25] = target: MAPKAPK2 (Homo sapiens (Human), UniProt P49137); assay: SelectScreen Kinase Profiling: MAPKAPK2; type: biochemical; settings: tested at 300-350 nM
Chain of MAPKAPK2 (P49137 whole entry): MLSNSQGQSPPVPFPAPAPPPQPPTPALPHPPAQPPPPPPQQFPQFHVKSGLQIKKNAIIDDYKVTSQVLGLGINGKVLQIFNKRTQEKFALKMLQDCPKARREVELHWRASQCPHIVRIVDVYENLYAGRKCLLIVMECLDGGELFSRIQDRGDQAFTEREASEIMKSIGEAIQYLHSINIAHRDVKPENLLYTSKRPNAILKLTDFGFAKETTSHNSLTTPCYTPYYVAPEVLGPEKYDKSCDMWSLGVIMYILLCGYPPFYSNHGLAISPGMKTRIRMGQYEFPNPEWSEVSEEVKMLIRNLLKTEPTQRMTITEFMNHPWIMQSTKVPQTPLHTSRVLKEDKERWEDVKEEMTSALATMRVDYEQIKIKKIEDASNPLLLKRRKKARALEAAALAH
Description: as §1

[26] = target: IKBKB (IKK beta) (Homo sapiens (Human), UniProt O14920); assay: SelectScreen Kinase Profiling: IKBKB (IKK beta); type: biochemical; settings: tested at 300-350 nM
Description: as §1

[27] = target: IRAK4 (Homo sapiens (Human), UniProt Q9NWZ3); assay: SelectScreen Kinase Profiling: IRAK4; type: biochemical; settings: tested at 300-350 nM
Description: as §1

[28] = target: JAK3 (Homo sapiens (Human), UniProt P52333); assay: SelectScreen Kinase Profiling: JAK3; type: biochemical; settings: tested at 300-350 nM
Description: as §1

[29] = target: FGFR1 (Homo sapiens (Human), UniProt P11362); assay: SelectScreen Kinase Profiling: FGFR1; type: biochemical; settings: tested at 300-350 nM
Description: as §1

[30] = target: NTRK1 (TRKA) (Homo sapiens (Human), UniProt P04629); assay: SelectScreen Kinase Profiling: NTRK1 (TRKA); type: biochemical; settings: tested at 300-350 nM
Description: as §1

[31] = target: BTK (Homo sapiens (Human), UniProt Q06187); assay: SelectScreen Kinase Profiling: BTK; type: biochemical; settings: tested at 300-350 nM
Description: as §1

[32] = target: KIT (Homo sapiens (Human), UniProt P10721); assay: SelectScreen Kinase Profiling: KIT; type: biochemical; settings: tested at 300-350 nM
Chain of KIT (P10721 26-976): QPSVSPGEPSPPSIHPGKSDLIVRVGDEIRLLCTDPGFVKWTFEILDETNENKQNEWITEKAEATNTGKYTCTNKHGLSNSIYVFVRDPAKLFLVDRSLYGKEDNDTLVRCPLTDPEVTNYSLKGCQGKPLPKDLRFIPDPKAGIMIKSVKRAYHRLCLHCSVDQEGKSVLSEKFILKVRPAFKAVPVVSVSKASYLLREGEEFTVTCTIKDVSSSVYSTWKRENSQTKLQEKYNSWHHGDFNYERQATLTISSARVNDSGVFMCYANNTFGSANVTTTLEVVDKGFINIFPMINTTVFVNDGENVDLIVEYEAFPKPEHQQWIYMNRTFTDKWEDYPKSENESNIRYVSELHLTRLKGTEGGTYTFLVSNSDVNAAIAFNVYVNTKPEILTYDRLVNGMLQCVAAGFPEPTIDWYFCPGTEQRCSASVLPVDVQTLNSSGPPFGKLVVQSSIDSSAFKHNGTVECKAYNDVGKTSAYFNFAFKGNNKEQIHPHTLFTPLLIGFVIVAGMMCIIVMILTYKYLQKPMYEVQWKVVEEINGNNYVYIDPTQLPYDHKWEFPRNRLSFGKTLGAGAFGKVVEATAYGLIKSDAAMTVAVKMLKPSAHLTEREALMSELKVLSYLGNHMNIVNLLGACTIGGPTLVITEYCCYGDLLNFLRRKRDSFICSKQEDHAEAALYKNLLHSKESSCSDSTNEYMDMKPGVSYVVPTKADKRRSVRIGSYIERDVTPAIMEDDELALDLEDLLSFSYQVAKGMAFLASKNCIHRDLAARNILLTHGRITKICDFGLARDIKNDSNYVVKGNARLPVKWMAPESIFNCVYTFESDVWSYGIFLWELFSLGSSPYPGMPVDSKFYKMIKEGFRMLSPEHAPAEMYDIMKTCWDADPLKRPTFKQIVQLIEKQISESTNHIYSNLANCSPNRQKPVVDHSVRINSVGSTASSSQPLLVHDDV
Description: as §1

[33] = tested on: HT29 cells; assay: Cell viability (CellTiter-Glo), HT29; type: cell-based; settings: Homo sapiens, HT-29; cell viability after 72 hours
Experimental: as §2

[34] = target: CDK1/cyclin B (Homo sapiens (Human), UniProt P06493); assay: SelectScreen Kinase Profiling: CDK1/cyclin B; type: biochemical; settings: tested at 300-350 nM
Chain of CDK1/cyclin B (P06493 whole entry): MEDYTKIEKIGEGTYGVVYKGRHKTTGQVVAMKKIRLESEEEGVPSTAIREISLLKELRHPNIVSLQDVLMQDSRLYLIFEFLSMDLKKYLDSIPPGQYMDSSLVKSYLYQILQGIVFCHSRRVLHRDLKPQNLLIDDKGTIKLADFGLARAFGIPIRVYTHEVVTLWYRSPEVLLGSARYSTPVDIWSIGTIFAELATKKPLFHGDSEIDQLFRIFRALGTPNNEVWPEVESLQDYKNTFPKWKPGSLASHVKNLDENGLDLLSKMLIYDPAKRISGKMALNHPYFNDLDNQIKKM
Chain of CDK1/cyclin B (P14635 whole entry partner): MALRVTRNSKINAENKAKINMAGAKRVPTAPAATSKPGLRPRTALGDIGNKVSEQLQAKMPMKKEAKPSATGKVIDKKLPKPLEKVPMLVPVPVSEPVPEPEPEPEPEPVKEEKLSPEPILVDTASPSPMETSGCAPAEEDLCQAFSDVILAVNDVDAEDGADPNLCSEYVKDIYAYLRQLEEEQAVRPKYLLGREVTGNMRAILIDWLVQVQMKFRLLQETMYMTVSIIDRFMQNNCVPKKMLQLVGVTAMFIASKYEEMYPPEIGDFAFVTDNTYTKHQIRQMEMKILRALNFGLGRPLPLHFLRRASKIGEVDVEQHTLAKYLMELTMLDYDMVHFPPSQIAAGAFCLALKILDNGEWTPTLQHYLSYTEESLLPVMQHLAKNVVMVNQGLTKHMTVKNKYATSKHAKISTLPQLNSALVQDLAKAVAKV
Description: as §1

[35] = target: PRKACA (PKA) (Homo sapiens (Human), UniProt P17612); assay: SelectScreen Kinase Profiling: PRKACA (PKA); type: biochemical; settings: tested at 300-350 nM
Description: as §1

C=CCn1c(=O)c2cnc(Nc3ccc(N4CCN(C)CC4)cc3)nc2n1-c1cccc(N=S(C)(C)=O)n1 [Example 5, 1-(6-{[Dimethyl(oxo)-λ^6-sulfanylidene]amino}pyridine-2-yl)-6-{[4-(4-methylpiperazin-1-yl)phenyl]amino}-2-(prop-2-en-1-yl)-1H,2H,3H-pyrazolo[3,4-d]pyrimidin-3-one]
inhibition of MAP2K1 (MEK1) [1]: − (inhibition under 50% (tested at 300-350 nM)) | inhibition of ERBB2 (HER2) [2]: − (inhibition under 50% (tested at 300-350 nM)) | inhibition of PLK1 [3]: − (inhibition under 50% (tested at 300-350 nM)) | inhibition of MET (cMet) [4]: − (inhibition under 50% (tested at 300-350 nM)) | inhibition of ROCK1 [5]: − (inhibition under 50% (tested at 300-350 nM)) | EC50 [6]: 0.025 µM | EC50 [7]: 0.012 µM | inhibition of AURKA (Aurora A) [8]: − (inhibition under 50% (tested at 300-350 nM)) | inhibition of EPHA2 [9]: − (inhibition under 50% (tested at 300-350 nM)) | inhibition of AKT1 (PKB alpha) [10]: − (inhibition under 50% (tested at 300-350 nM)) | inhibition of ACVR1B (ALK4) [11]: − (inhibition under 50% (tested at 300-350 nM)) | inhibition of PRKCB1 (PKC beta I) [12]: − (inhibition under 50% (tested at 300-350 nM)) | inhibition of PIM1 [13]: − (inhibition under 50% (tested at 300-350 nM)) | inhibition of MAPK1 (ERK2) [14]: − (inhibition under 50% (tested at 300-350 nM)) | inhibition of GSK3B (GSK3 beta) [15]: − (inhibition under 50% (tested at 300-350 nM)) | inhibition of ABL1 [16]: − (inhibition under 50% (tested at 300-350 nM)) | inhibition of CSNK1G2 (CK1 gamma 2) [17]: − (inhibition under 50% (tested at 300-350 nM)) | inhibition of NEK1 [18]: − (inhibition under 50% (tested at 300-350 nM)) | inhibition of LCK [19]: − (inhibition under 50% (tested at 300-350 nM)) | inhibition of DYRK3 [20]: − (inhibition under 50% (tested at 300-350 nM)) | inhibition of PHKG2 [21]: − (inhibition under 50% (tested at 300-350 nM)) | inhibition of RET [22]: − (inhibition under 50% (tested at 300-350 nM)) | inhibition of CSNK2A1 (CK2 alpha 1) [23]: − (inhibition under 50% (tested at 300-350 nM)) | inhibition of FLT3 [24]: − (inhibition under 50% (tested at 300-350 nM)) | inhibition of MAPKAPK2 [25]: − (inhibition under 50% (tested at 300-350 nM)) | inhibition of IKBKB (IKK beta) [26]: − (inhibition under 50% (tested at 300-350 nM)) | inhibition of IRAK4 [27]: − (inhibition under 50% (tested at 300-350 nM)) | inhibition of JAK3 [28]: − (inhibition under 50% (tested at 300-350 nM)) | inhibition of FGFR1 [29]: − (inhibition under 50% (tested at 300-350 nM)) | inhibition of NTRK1 (TRKA) [30]: − (inhibition under 50% (tested at 300-350 nM)) | inhibition of BTK [31]: − (inhibition under 50% (tested at 300-350 nM)) | inhibition of KIT [32]: − (inhibition under 50% (tested at 300-350 nM)) | EC50 [33]: 0.033 µM | inhibition of CDK1/cyclin B [34]: − (inhibition under 50% (tested at 300-350 nM)) | inhibition of PRKACA (PKA) [35]: − (inhibition under 50% (tested at 300-350 nM))
